Experimental findings from patent publication US8067408B2, “Dual pharmacophores—PDE4-muscarinic antagonistics” (priority 2008, dated 2011) are described below.

This experiment has as its system M1, M2 (w/Gqi5) and M3 ACh receptors stably expressed in CHO cells. The experiment can be described thus: Calcium mobilization (FLIPR) IC50 determination for antagonists of ACh induced muscarinic receptor activation. Type of experiment: cell-based, human. The note with it: EC80 concentration of ACh, active if IC50 of between 33 uM and 10 nM or less, receptor subtype (M1/M2/M3) not specified. An excerpt: Calcium Mobilization Studies (FLIPR)
Studies to determine the effectiveness of antagonists to cause blockade of functional intracellular calcium fluxes following agonist (ACh) treatment of cloned human receptors.
This system is used for characterizations of antagonist-receptor interactions using four distinct variations of the FLIPR methodology: (a) potency: IC50 determination, (b) potency: pA2 determination, (c) reversibility of antagonist-receptor interaction, or (d) confirmation of no functional agonist activity. • Cell Source The human M1-M3 receptors are cloned and stably expressed in Chinese Hamster Ovary (CHO) cells. The M2 receptors are co-expressed with the chimeric G protein, Gqi5. • Cell lines: M1 stable: Biocat #1044; M2+Gqi5 stable: Biocat #95663; M3 stable: Biocat #1049 • Method of Culture: CHO-M1, CHO-Gqi5-M2 and CHO-M3 cells are cultured to confluence at 37° C. in a humidified incubator with 5% CO2/95% air. CHO-M1 and CHO-M3 are cultured in Alpha MEM with nucleosides and L-glutamine and 10% fetal calf serum. […] The emitted fluorescence from all 96 wells is measured simultaneously using a cooled CCD camera. Data points are collected every second. Maximal change in emission from each well after simultaneous addition of agonist or compound to each of the 96 wells is then exported to an excel spreadsheet. […] Experimental Protocols: • Cell plating: A microtiter plate based calcium mobilization FLIPR (Fluorometric Imaging Plate Reader, Molecular Devices, Sunnyvale Calif., [Schroeder KS, Neagle, BD. FLIPR: a new instrument for accurate, high throughput optical screening. J. Biomol. Screen. 1996; 1:75.]) assay is used for the functional characterization of compounds against M1, M2 (w/Gqi5) and M3 ACh receptors stably expressed in CHO cells. […] The basal emission fluorescence is measured, then the cellular response to an EC80 concentration of ACh (3.3 nM against M1, 10 nM against M2 and 1.0 nM against M3) prepared in KRH assay buffer with 0.1% BSA (no gelatin), is monitored in FLIPR for 90 seconds and then 50 μL of 100 μM ATP (assay concentration of 20 μM) is added to check cell viability (H. M. Sarau et al, 1999. Mol. Pharmacol. 56, 657-663). […]
With `CCc1nc2c(cnn2CC)c(NC2CCOCC2)c1CNC(=O)c1cccc(C(=O)NCc2cc(-c3cccc(CN4CCN(C)CC4)c3)ccc2OC)c1` [Example 271, N-{[1,6-Diethyl-4-(tetrahydro-2H-pyran-4-ylamino)-1H-pyrazolo[3,4-b]pyridin-5-yl]methyl}-N′-({4-(methyloxy)-3′-[(4-methyl-1-piperazinyl)methyl]-3-biphenylyl}methyl)-1,3-benzenedicarboxamide], the “IC50: compound pretreatment concentration which inhibits 50% of the ACh induced response” value is on record as “most active”.
With `CCc1nc2c(cnn2CC)c(NC2CCOCC2)c1CNC(=O)c1cccc(C(=O)NCc2ccc(F)c(-c3cccc(CNC4CCCC4)c3)c2)c1` [Example 307, N-({3′-[(Cyclopentylamino)methyl]-6-fluoro-3-biphenylyl}methyl)-N′-{[1,6-diethyl-4-(tetrahydro-2H-pyran-4-ylamino)-1H-pyrazolo[3,4-b]pyridin-5-yl]methyl}-1,3-benzenedicarboxamide], the “IC50: compound pretreatment concentration which inhibits 50% of the ACh induced response” value is listed as “most active”.
On to `CCc1nc2c(cnn2CC)c(NC2CCOCC2)c1CNCc1cccc(C(=O)NCc2ccc(F)c(-c3cccc(CN4CCNCC4)c3)c2)c1` [Example 228, 3-[({[1,6-Diethyl-4-(tetrahydro-2H-pyran-4-ylamino)-1H-pyrazolo[3,4-b]pyridin-5-yl]methyl}amino)methyl]-N-{[6-fluoro-3′-(1-piperazinylmethyl)-3-biphenylyl]methyl}benzamide], for which the “IC50: compound pretreatment concentration which inhibits 50% of the ACh induced response” value is recorded as “most active”.
Turning to `CCc1nc2c(cnn2CC)c(NC2CCOCC2)c1CNC(=O)c1cccc(C(=O)NCc2ccc(F)c(-c3cccc(CNc4ccncc4)c3)c2)c1` [Example 311, N-{[1,6-Diethyl-4-(tetrahydro-2H-pyran-4-ylamino)-1H-pyrazolo[3,4-b]pyridin-5-yl]methyl}-N′-({6-fluoro-3′-[(4-pyridinylamino)methyl]-3-biphenylyl}methyl)-1,3-benzenedicarboxamide], the “IC50: compound pretreatment concentration which inhibits 50% of the ACh induced response” value was “most active”.
